Structures are written as SMILES.

Holding throughout (assay type): biochemical
The target of experiment [1] is T1, human macrophage elastase (HME/hMMP-12) (Homo sapiens, UniProt P39900).
T1 construct: 0.5 nM HME; purchased R&D Systems 917-MP
As to the kind of experiment: In vitro HME inhibition test (standard / high-sensitivity), without BSA. The following applies: absence of serum albumin (BSA). An excerpt:
The activity of the compounds according to the invention towards HME (MMP-12) is ascertained in an in vitro inhibition test. The HME-mediated amidolytic cleavage of a suitable peptide substrate leads herein to a fluorescent light increase. The signal intensity of the fluorescent light is directly proportional to the enzyme activity. The active concentration of a test compound at which half of the enzyme is inhibited (50% signal intensity of the fluorescent light) is given as IC50 value.
In a 384 hole microtiter plate, in a test volume of in total 41 μl of the test buffer (0.1 M HEPES pH 7.4, 0.15 M NaCl, 0.03 M CaCl2, 0.004 mM ZnCl2, […], 0.005% Brij®), the enzyme (0.5 nM HME; R&D Systems, 917-MP, autocatalytic activation according to the manufacturer's instructions) and the intramolecularly quenched substrate [5 μM Mca-Pro-Leu-Gly-Leu-Glu-Glu-Ala-Dap(Dnp)-NH2; Bachem, M-2670] are incubated in the absence and presence of the test substance (as solution in DMSO) for two hours at 37° C. The fluorescent light intensity of the test batches is measured (excitation 323 nm, emission 393 nm). The IC50 values are ascertained by plotting the fluorescent light intensity against the active ingredient concentration.
If subnanomolar IC values are produced for high potent test substances in the standard HME inhibition test described above, then a modified test is used for their more precise determination. Here, a ten-fold lower enzyme concentration is used (final concentration e.g. 0.05 nM), in order to achieve an increased sensitivity of the test. The incubation time of the test is accordingly chosen to be longer (e.g. 16 hours).
Table 1 below gives the IC50 values from these HME inhibition tests for the working examples of the present invention and also for two structurally related comparison compounds from the prior art (as racemate or separated enantiomers)→(sometimes as average values from several independent individual determinations and rounded to two significant places). The IC50 values were determined for racemates and enantiomers from differently generated DMSO stock solutions. Whereas an automatically created DMSO stock solution from the internal substance logistics was used for racemates by means of a standard method, for enantiomers and for a more precise direct comparison of the enantiomers with one another, in each case a freshly produced, manually prepared DMSO stock solution was used.

A further experiment has as its target MMP-2 of the rat. The experiment in a line: In vitro MMP-2 inhibition test of the rat. An excerpt: (§1) The activity strength of the compounds according to the invention towards other MMPs (and therefore their selectivity) is likewise ascertained in in vitro inhibition tests. The MMP-mediated amidolytic cleavage of a suitable peptide substrate also leads here to a fluorescent light increase. The signal intensity of the fluorescent light is directly proportional to the enzyme activity. The active concentration of a test compound at which half of the enzyme is inhibited (50% signal intensity of the fluorescent light) is given as IC50 value.
Recombinant MMP-2 of the rat (R&D Systems, 924-MP) is chemically activated in accordance with the manufacturer's instructions using APMA. […] of the test compound to be analysed (as a solution in DMSO, suitable concentrations e.g. 1 nM to 30 μM) is pipetted into 24 μl of activated enzyme (final concentration e.g. 1 nM) in reaction buffer (50 mM Tris/HCl pH 7.5, 10 mM CaCl2, 150 mM NaCl, 0.05% Brij®-35) in a white 384-hole microtiter plate (MTP). The enzymatic reaction is started by adding the intramolecularly quenched substrate Mca-Pro-Leu-Gly-Leu-Dpa(Dnp)-Ala-Arg-NH2 (final concentration e.g. 10 μM; R&D Systems, ES-001), such that a total test volume of 50 μl results. The progress of the MMP-2 reaction is measured by measuring the fluorescence intensity (excitation 320 nm, emission 410 nm) over a suitable period (e.g. over 120 min at a temperature of 32° C.).
Tables 3A and 3B below give the IC50 values from these tests for the inhibition of rodent MMPs for representative embodiment examples of the present invention and also for two structurally related comparison compounds from the prior art (as racemate and separated enantiomer)→(in part as average values from several independent individual determinations and rounded to two significant places). The IC50 values were determined for racemates and enantiomers from differently generated DMSO stock solutions. Whereas an automatically created DMSO stock solution from the internal substance logistics was used for racemates by means of a standard method, in the case of enantiomers, in each case a freshly produced, manually prepared DMSO stock solution was used for a more precise direct comparison of the enantiomers with one another.

The target of another experiment is T2, MMP-9 (Homo sapiens, UniProt P14780).
T2 construct: purchased R&D Systems 911-MP
T2 sequence (P14780 107-707 limits assumed): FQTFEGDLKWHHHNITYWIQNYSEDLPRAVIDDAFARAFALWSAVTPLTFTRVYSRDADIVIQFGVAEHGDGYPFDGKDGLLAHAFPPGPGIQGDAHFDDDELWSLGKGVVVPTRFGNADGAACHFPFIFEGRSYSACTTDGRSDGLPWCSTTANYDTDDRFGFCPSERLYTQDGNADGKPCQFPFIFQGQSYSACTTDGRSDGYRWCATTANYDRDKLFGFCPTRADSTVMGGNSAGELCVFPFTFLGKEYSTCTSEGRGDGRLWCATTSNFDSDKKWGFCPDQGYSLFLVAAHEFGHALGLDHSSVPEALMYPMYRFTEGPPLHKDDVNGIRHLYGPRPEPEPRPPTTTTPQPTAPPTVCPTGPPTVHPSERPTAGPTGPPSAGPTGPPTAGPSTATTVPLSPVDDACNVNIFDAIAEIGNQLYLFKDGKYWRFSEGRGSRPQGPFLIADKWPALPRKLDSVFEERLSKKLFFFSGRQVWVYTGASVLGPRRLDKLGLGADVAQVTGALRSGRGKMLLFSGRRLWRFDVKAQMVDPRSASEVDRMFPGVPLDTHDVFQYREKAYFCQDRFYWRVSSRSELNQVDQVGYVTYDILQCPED
The experiment in a line: In vitro MMP-9 inhibition test.
Text: as §1
Recombinant MMP-9 (R&D Systems, 911-MP) is chemically activated in accordance with the manufacturer's instructions using APMA. 1 μl of the test compound to be analysed (as a solution in DMSO, suitable concentrations e.g. 1 nM to 30 μM) is pipette into 24 μl of activated enzyme (final concentration e.g. 0.1 nM) in reaction buffer (50 mM Tris/HCl pH 7.5, 10 mM CaCl2, 150 mM NaCl, 0.05% Brij®-35) in a white 384-hole microtiter plate (MTP). The enzymatic reaction is started by adding the intramolecularly quenched substrate Mca-Pro-Leu-Gly-Leu-Dpa(Dnp)-Ala-Arg-NH2 (final concentration e.g. 10 μM; R&D Systems, ES-001), such that a total test volume of 50 μl results. The progress of the MMP-9 reaction is measured by measuring the fluorescence intensity (excitation 320 nm, emission 410 nm) over a suitable period (e.g. over 120 min at a temperature of 32° C.).
The IC50 values were determined for racemates and enantiomers from differently generated DMSO stock solutions. Whereas an automatically produced DMSO stock solution from the internal substance logistics was used for racemates by means of a standard method, in the case of enantiomers a freshly produced, manually prepared DMSO stock solution was used in each case for a more precise direct comparison of the enantiomers with one another.

T1 sequence (P39900 106-470): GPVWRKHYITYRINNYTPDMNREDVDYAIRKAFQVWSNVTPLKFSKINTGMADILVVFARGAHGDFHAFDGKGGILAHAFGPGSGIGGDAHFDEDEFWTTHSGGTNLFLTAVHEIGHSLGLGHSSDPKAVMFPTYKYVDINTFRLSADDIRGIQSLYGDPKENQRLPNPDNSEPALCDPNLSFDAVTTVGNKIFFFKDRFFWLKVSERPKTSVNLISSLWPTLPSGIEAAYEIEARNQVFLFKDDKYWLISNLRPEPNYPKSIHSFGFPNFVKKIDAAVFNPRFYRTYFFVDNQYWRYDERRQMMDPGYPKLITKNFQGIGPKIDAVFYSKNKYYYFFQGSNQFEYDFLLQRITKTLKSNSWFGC

In general, IC50 refers to the concentration that gives 50% inhibition. A high value points to weaker potency. Regarding `O=C(O)[C@H]1[C@H](Cn2nnc3ccccc3c2=O)CC[C@@H]1C(=O)c1ccc(-c2ccc(Cl)cc2)cc1` (racemic) [Comparative Example A-1, (1RS,2RS,5SR)-2-[(4′-chlorobiphenyl-4-yl)carbonyl]-5-[(4-oxo-1,2,3-benzotriazin-3(4H)-yl)methyl]cyclopentanecarboxylic acid (racemate)], the IC50 in experiment [1] worked out at 0.043 nM; against MMP-2 of the rat it was 1.3 nM; on MMP-9 it was 1.9 nM.
Regarding `CCCCCOc1ccc(C(=O)CC(CCn2nnc3ccccc3c2=O)C(=O)O)cc1` (single isomer, unassigned; enantiomer 1) [Comparative Example B-2, (+)-4-Oxo-2-[2-(4-oxo-1,2,3-benzotriazin-3(4H)-yl)ethyl]-4-[4-(pentyloxy)phenyl]butanoic acid (enantiomer 1)], the IC50 in experiment [1] turned out to be 1.6 nM; at MMP-2 of the rat, 145 nM; on MMP-9, 625 nM.
The corresponding values for `CCCCCOc1ccc(C(=O)CC(CCn2nnc3ccccc3c2=O)C(=O)O)cc1` (racemic) [Comparative Example B-1, (+/−)-4-Oxo-2-[2-(4-oxo-1,2,3-benzotriazin-3(4H)-yl)ethyl]-4-[4-(pentyloxy)phenyl]butanoic acid (racemate)] are 1.5 nM, 610 nM and 1400 nM.
For the compound `O=C(O)[C@@H]1[C@@H](Cn2nnc3ccccc3c2=O)CC[C@H]1C(=O)c1ccc(-c2ccc(Cl)cc2)cc1` (single isomer, unassigned; enantiomer 2) [Comparative Example A-3, (1RS,2RS,5SR)-2-[(4′-Chlorobiphenyl-4-yl)carbonyl]-5-[(4-oxo-1,2,3-benzotriazin-3(4H)-yl)methyl]cyclopentanecarboxylic acid (enantiomer 2)], the concentration for half-maximal inhibition (IC50) is 0.018 nM in experiment [1], less than 0.61 nM on MMP-2 of the rat and 1.1 nM at MMP-9.
For `O=C(O)[C@H]1[C@H](Cn2nnc3ccccc3c2=O)CC[C@@H]1C(=O)c1ccc(OCc2ccccc2)cc1` [Example 2, (+)-(1S,2S,5R)-2-[4-(Benzyloxy)benzoyl]-5-[(4-oxo-1,2,3-benzotriazin-3(4H)-yl)methyl]cyclopentanecarboxylic acid], the IC50 came to 0.071 nM in experiment [1], 16.5 nM against MMP-2 of the rat and 23 nM against MMP-9.
With `O=C(O)[C@H]1[C@H](Cn2nnc3ccccc3c2=O)CC[C@@H]1C(=O)c1ccc(OCc2ccccc2)cc1` (racemic) [Example 1, (+/−)-(1RS,2RS,5SR)-2-[4-(Benzyloxy)benzoyl]-5-[(4-oxo-1,2,3-benzotriazin-3(4H)-yl)methyl]cyclopentanecarboxylic acid (racemate)], the concentration for half-maximal inhibition (IC50) in experiment [1] was 0.059 nM; against MMP-2 of the rat, 33 nM; at MMP-9, 30 nM.

These data come from US20170119776A1, “CHIRAL 2,5-DISUBSTITUTED CYCLOPENTANECARBOXYLIC ACID DERIVATIVES AND USE THEREOF” (BAYER PHARMA AKTIENGESELLSCHAFT, priority 2014, published 2017).
